Results reported in patent publication US10597378B2 (priority 2017, dated 2020).
Like-named read-outs stand apart in the source and are kept apart here.

Columns and labels:
MOR = MOR (Homo sapiens, UniProt P35372); assay: cell-based; set-up: expressed in transfected cells; host or cells: CHO-K1/MOR/Ga15 cells; conditions: for EC50: read-out: FLIPR Ca2+ EC50; for FLIPR Ca2+ AUC: area under the [Ca2+]i fluorescence response curve, up to 90 s
Experimental: In an exemplary in vitro assay for identifying MOR agonists, cells that express a MOR are treated with a test compound in a cellular calcium fluorescent assay and calcium fluorescence intensity is then measured to determine whether the MOR is activated. A test compound is identified as a MOR agonist if the MOR is activated.
EC50 herein refers to the concentration of a compound that induces a response halfway between the baseline and the maximum after a specified exposure time. AUC refers to the area under the response curve, an indication of the compound's capability of activating a MOR.
One day before the assay, CORNING® black with clear flat bottom 96-well assay plates were coated with a 0.1 mg/mL Poly-L-Lysine solution. CHO-K1/MOR/Ga15 cells were suspended in the F12 medium and plated at a density of about 8×10^4 cells/well in […] medium. Cells were incubated in a humidified atmosphere of 10% CO2 at 37° C. overnight so as to reach an 80-90% confluent cell monolayer before the assay. On the day of the assay, 150 μL medium/well was removed from plate. […] Compounds and other reagents were dissolved in the assay buffer. […] The [Ca^2+]i fluorescence was measured up to 90 s after agonist injection.

[1] = system: wild-type C57BL/6 (B6) mice; assay: Tail flick test (acute thermal pain); type: in vivo, mouse; conditions: equi-antinociceptive doses, B6 mice
B6 mice [2] = assay: Cardiovascular function test (tail cuff plethysmography); conditions: acute, equi-antinociceptive doses
B6 mice [3] = assay: Respiratory function test; conditions: acute, equi-antinociceptive doses
mice = assay: Conditioned place preference (CPP) test, reinstatement of morphine CPP; conditions: challenge on reinstatement day (Day 21)
human mu-opioid receptor = biological target: T1, human mu-opioid receptor (Homo sapiens, UniProt P35372); assay: cell-based; type: cell-based
T1 construct: expressed in transfected cells; host or cells: HEK-293 (HEK-MOR), kept under G418
Experimental: Cells (72,000 per well) were plated in 100 μl/well of DMEM in 96-well solid-bottom white plates (GIBCO) and 50 μl/well of drug in HBSS in the presence of forskolin and 3-isobutyl-1-methylxanthine at final concentrations of 1 μM and 500 μM, respectively. After 30 min of incubation at room temperature, the concentration of cyclic adenosine monophosphate was determined using a LANCE Ultra cAMP Assay kit (PerkinElmer).
As MOR belongs to the GPCR family, activation of MOR leads to a decrease in intracellular cAMP level.

Sequence of MOR (P35372 whole entry): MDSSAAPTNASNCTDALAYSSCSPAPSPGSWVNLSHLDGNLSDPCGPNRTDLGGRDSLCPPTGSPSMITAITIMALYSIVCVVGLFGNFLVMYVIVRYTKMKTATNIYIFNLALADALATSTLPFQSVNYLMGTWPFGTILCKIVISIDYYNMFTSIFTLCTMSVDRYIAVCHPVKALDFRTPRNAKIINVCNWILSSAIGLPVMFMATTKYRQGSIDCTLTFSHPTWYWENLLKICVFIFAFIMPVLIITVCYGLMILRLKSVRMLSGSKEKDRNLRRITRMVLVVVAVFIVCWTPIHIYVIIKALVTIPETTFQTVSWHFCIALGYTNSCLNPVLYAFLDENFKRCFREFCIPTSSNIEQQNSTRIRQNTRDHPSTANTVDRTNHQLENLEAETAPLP
T1 sequence (P35372 whole entry): as above

Row | Compound | EC50 (MOR; CHO-K1/MOR/Ga15 cells) [nM] | FLIPR Ca2+ AUC (MOR) | EC50 (MOR) [nM] | further results
1 | O=C(NCC1NCCc2ccccc21)C1CCCC1 (centres unmarked) [Compound 43, N-(1,2,3,4-Tetrahydro-1-isoquinolinylmethyl)cyclopentanecarboxamide] | 8910 | 5768 | – | –
2 | O=C(NCC1NCCc2ccccc21)C1CCC1 (centres unmarked) [Compound 44, N-(1,2,3,4-Tetrahydro-1-isoquinolinylmethyl)cyclobutanecarboxamide] | 6800 | 3646 | – | –
3 | O=C(NCC1NCCc2ccccc21)c1ccccc1 (centres unmarked) [Compound 45, N-(1,2,3,4-Tetrahydro-1-isoquinolinylmethyl)benzamide] | 750 | 8628 | – | –
4 | COc1ccc(C(=O)NCC2NCCc3ccccc32)cc1 (centres unmarked) [Compound 46, 4-Methoxy-N-(1,2,3,4-tetrahydro-1-isoquinolinylmethyl)benzamide] | – | – | 370 | –
5 | O=C(NCC1NCCc2ccccc21)c1ccc(OC(F)(F)F)cc1 (centres unmarked) [Compound 47, N-(1,2,3,4-Tetrahydro-1-isoquinolinylmethyl)-4-(trifluoromethoxy)benzamide] | – | – | 370 | –
6 | O=C(NCC1NCCc2ccccc21)c1ccc(F)cc1 (centres unmarked) [Compound 48, 4-Fluoro-N-(1,2,3,4-tetrahydro-1-isoquinolinylmethyl)benzamide] | – | – | 540 | –
7 | O=C(NCC1NCCc2ccccc21)c1ccc(Cl)cc1 (centres unmarked) [Compound 49, 4-Chloro-N-(1,2,3,4-tetrahydro-1-isoquinolinylmethyl)benzamide] | – | – | 230 | –
8 | CCc1ccc(C(=O)NCC2NCCc3ccccc32)cc1 (centres unmarked) [Compound 50, 4-Ethyl-N-(1,2,3,4-tetrahydro-1-isoquinolinylmethyl)benzamide] | – | – | 60 | –
9 | COc1cccc(C(=O)NCC2NCCc3ccccc32)c1 (centres unmarked) [Compound 51, 3-Methoxy-N-(1,2,3,4-tetrahydro-1-isoquinolinylmethyl)benzamide] | 860 | 13302 | – | –
10 | O=C(NCC1NCCc2ccccc21)c1cccc(F)c1 (centres unmarked) [Compound 52, 3-Fluoro-N-(1,2,3,4-tetrahydro-1-isoquinolinylmethyl)benzamide] | 780 | 11425 | – | –
11 | O=C(NCC1NCCc2ccccc21)c1cccc(Cl)c1 (centres unmarked) [Compound 53, 3-Chloro-N-(1,2,3,4-tetrahydro-1-isoquinolinylmethyl)benzamide] | 380 | 13149 | – | –
12 | Cc1cccc(C(=O)NCC2NCCc3ccccc32)c1 (centres unmarked) [Compound 54, 3-Methyl-N-(1,2,3,4-tetrahydro-1-isoquinolinylmethyl)benzamide] | – | – | 370 | –
13 | COc1ccccc1C(=O)NCC1NCCc2ccccc21 (centres unmarked) [Compound 55, 2-Methoxy-N-(1,2,3,4-tetrahydro-1-isoquinolinylmethyl)benzamide] | 3310 | 4312 | – | –
14 | O=C(NCC1NCCc2ccccc21)c1ccccc1OC(F)(F)F (centres unmarked) [Compound 56, N-(1,2,3,4-Tetrahydro-1-isoquinolinylmethyl)-2-(trifluoromethoxy)benzamide] | 3310 | 7855 | – | –
15 | O=C(NCC1NCCc2ccccc21)c1ccccc1F (centres unmarked) [Compound 57, 2-Fluoro-N-(1,2,3,4-tetrahydro-1-isoquinolinylmethyl)benzamide] | 3280 | 12102 | – | –
16 | Cc1ccc(C(=O)NCC2NCCc3ccccc32)cc1C (centres unmarked) [Compound 58, 3,4-Dimethyl-N-(1,2,3,4-tetrahydro-1-isoquinolinylmethyl)benzamide] | – | – | 120 | –
17 | O=C(NCC1NCCc2ccccc21)c1ccc(Cl)c(Cl)c1 (centres unmarked) [Compound 59, 3,4-Dichloro-N-(1,2,3,4-tetrahydro-1-isoquinolinylmethyl)benzamide] | – | – | 250 | –
18 | Cc1ccc(C(=O)NCC2NCCc3ccccc32)c(C)c1 (centres unmarked) [Compound 60, 2,4-Dimethyl-N-(1,2,3,4-tetrahydro-1-isoquinolinylmethyl)benzamide] | 660 | 13375 | – | –
19 | Cc1ccc(C(=O)NCC2c3ccccc3CCN2C)cc1 (centres unmarked) [Compound 61, 4-Methyl-N-[(2-methyl-1,2,3,4-tetrahydro-1-isoquinolinyl)methyl]benzamide] | 40 | 14757 | – | –
20 | CCCCN1CCc2ccccc2C1CNC(=O)c1ccc(C)cc1 (centres unmarked) [Compound 62, N-[(2-Butyl-1,2,3,4-tetrahydro-1-isoquinolinyl)methyl]-4-methylbenzamide] | 160 | 14669 | – | –
21 | Cc1ccc(C(=O)NCC2c3ccccc3CCN2CC(C)C)cc1 (centres unmarked) [Compound 63, 4-Methyl-N-{[2-(2-methylpropyl)-1,2,3,4-tetrahydro-1-isoquinolinyl]methyl}benzamide] | 110 | 18418 | – | –
22 | Cc1ccc(C(=O)NCC2c3ccccc3CCN2CCCl)cc1 (centres unmarked) [Compound 64, N-{[2-(2-Chloroethyl)-1,2,3,4-tetrahydro-1-isoquinolinyl]methyl}-4-methylbenzamide] | 30 | – | – | –
23 | CCc1ccc(C(=O)NCC2c3ccccc3CCN2C)cc1 (centres unmarked) [Compound 65, 4-Ethyl-N-[(2-methyl-1,2,3,4-tetrahydro-1-isoquinolinyl)methyl]benzamide] | 10 | 18367 | – | –
24 | Cc1ccc(C(=O)NCC2c3ccccc3CCN2C)cc1C (centres unmarked) [Compound 66, 3,4-Dimethyl-N-[(2-methyl-1,2,3,4-tetrahydro-1-isoquinolinyl)methyl]benzamide] | 10 | 17393 | – | –
25 | CN1CC[C@]23c4c5ccc(O)c4O[C@H]2[C@@H](O)C=C[C@H]3[C@H]1C5.Cl [morphine, Morphine hydrochloride, reference compound] | – | – | – | time at which analgesic effects were exerted after acute injection [1]: 20 min; blood pressure (B6 mice [2]): non-significant effect on blood pressure; heart rate (pulse) (B6 mice [2]): reduced from 10 to 30 min; rate-pressure product (B6 mice [2]): reduced from 10 to 20 min; respiratory amplitude (tidal volume) (B6 mice [3]): significantly reduced respiratory amplitude (tidal volume) at 10 to 20 min; respiratory frequency (B6 mice [3]; 10-60 min): marked respiratory depression at 10 min and keep falling of respiratory frequency going through 60 min; reinstatement of morphine CPP (mice): induced reinstatement of morphine CPP
26 | [Met5]enkephalin [Met-5, reference compound] | – | – | – | cAMP production (human mu-opioid receptor): significantly decreased cAMP production
